Test results taken from patent publication US20260364076A1 (Amgen Inc., priority 2022, published 2026).
Where two headings read alike, the source gives them in different places.

Key:
[1] = in vivo; cited from earlier work
[2] = Drug-drug interaction study with rifampin (CYP3A4 inducer): sotorasib plasma PK in healthy subjects; type: in vivo, human; details: for Cmax / AUC(0-inf) / AUC(0-t): human, plasma, 960 mg; for AUC(0-inf): read-out: AUCinf (GLSM); for AUC(0-t): read-out: AUClast (GLSM)
Protocol: (§1) Safety and tolerability monitoring were performed throughout the study.

[3] = Single-dose PK study in subjects with moderate or severe hepatic impairment compared to healthy subjects; type: in vivo, human
Protocol: (§2) This Example describes an open-label single-dose study of sotorasib that was conducted in healthy subjects and subjects with moderate or severe hepatic impairment (see, Inclusion/Exclusion criteria):
(§3) The primary objective of the study was to evaluate the pharmacokinetics (PK) of a single oral dose of sotorasib administered in subjects with moderate or severe hepatic impairment compared to subjects with normal hepatic function. The secondary objective of the study was to evaluate the safety and tolerability of sotorasib administered in subjects with moderate or severe hepatic impairment compared to subjects with normal hepatic function.
(§4) Subjects meeting eligibility requirements were assigned to 1 of 3 groups: Group 1—Normal function (No impairment, n=6-12); Group 2—Moderate impairment (Child-Pugh Class B, n=6-8); Group 3—Severe impairment (Child-Pugh Class C, n=6-8). The classification is based on Child-Pugh scores as per Figg et al. (1995).
The plasma PK parameters of sotorasib will be calculated using standard noncompartmental methods.
The data from hepatically impaired subjects (Group 2 and 3; tests) and control subjects (normal hepatic function [Group 1]; reference) will be included in the analysis. Geometric mean ratios (Test/Reference) for Cmax and AUC values and associated 90% confidence intervals will be estimated.
Additional parameters may be calculated, and sotorasib metabolites may be analyzed. PK parameters for the metabolites, if calculated, will not be subject to inferential statistical analysis. Specific details will be presented in the Statistical Analysis Plan for this study.

[4] = Drug-drug interaction study with itraconazole (CYP3A4 inhibitor): sotorasib plasma PK in healthy subjects; details: human, in vivo, po, 360 mg; for AUC(0-inf): AUCinf (GLSM); for AUC(0-t): AUClast (GLSM)
Protocol: as §1

KRAS^G12C = details: cited from earlier work
[5] = Safety and tolerability in single-dose hepatic impairment study; type: in vivo, human
Protocol: as §2, §3, §4

KRAS p.G12C tumors = details: mice bearing KRAS p.G12C tumors; cited from earlier work
[6] = test system: extracellular signal-regulated kinase (ERK); details: preclinical studies; cited from earlier work
[7] = test system: cancer with the KRAS G12C mutation; details: cited from earlier work
CYP3A = details: hepatic; cited from earlier work
[8] = test system: cells and tumors harboring KRAS G12C mutations; details: cited from earlier work
[9] = 960 mg sotorasib + 600 mg rifampin on day 3 (Test), single-dose rifampin
[10] = 960 mg sotorasib + 600 mg rifampin on day 18 (Test), multiple daily dosing of rifampin
[11] = 960 mg sotorasib on day 1 (Reference), healthy subjects
[12] = 360 mg sotorasib + 200 mg itraconazole (Test), day 6, healthy subjects
[13] = 360 mg sotorasib alone (Reference), day 1, single oral dose, healthy subjects

## C=CC(=O)N1CCN(c2nc(=O)n(-c3c(C)ccnc3C(C)C)c3nc(-c4c(O)cccc4F)c(F)cc23)[C@@H](C)C1 (atropisomer, axis not shown; (M)) [Sotorasib, 6-fluoro-7-(2-fluoro-6-hydroxyphenyl)-(1M)-1-[4-methyl-2-(propan-2-yl)pyridin-3-yl]-4-[(2S)-2-methyl-4-(prop-2-enoyl)piperazin-1-yl]pyrido[2,3-d]pyrimidin-2(1H)-one]
[1]
  route of elimination: mainly eliminated via the fecal route
[2]; following coadministration with rifampin on days 3 and 18
  Geometric mean exposures, based on AUC and Cmax: lower following coadministration with rifampin on days 3 and 18
[2]; [9]
  Cmax: 5340 ng/mL
  AUC(0-inf): 19600 ng·h/mL
  AUC(0-t): 19400 ng·h/mL
[2]; [10]
  Cmax: 4110 ng/mL
  AUC(0-inf): 12400 ng·h/mL
  AUC(0-t): 12300 ng·h/mL
[2]; [11]
  AUC(0-inf): 25600 ng·h/mL
  AUC(0-t): 25400 ng·h/mL
[3]; human, in vivo, po, 960 mg, read-out: half-life (t1/2), arithmetic mean
  half-life: 6.42 to 8.18 h
[3]; human, in vivo, po, 960 mg, read-out: median tmax
  Tmax: 1 to 1.47 h
[3]; moderate or severe hepatic impairment vs healthy subjects
  PK and safety profile: clinically sufficiently similar to the PK and safety profile of healthy subjects
[3]; normal, moderate or severe hepatic impairment, 960 mg sotorasib
  half-life (t1/2), trend across hepatic function groups: no apparent trend related to hepatic impairment
[4]
  Cmax: 6130 ng/mL
  Tmax: 0.51 h
[4]; [12]
  AUC(0-inf): 31000 ng·h/mL
  AUC(0-t): 30700 ng·h/mL
[4]; [13]
  AUC(0-inf): 24600 ng·h/mL
  AUC(0-t): 22700 ng·h/mL
KRAS^G12C
  inhibition of KRAS^G12C: specifically and irreversibly inhibits
[5]; 960 mg sotorasib single dose
  findings in clinical laboratory evaluations, physical examinations, ECGs, and vital signs: no clinically meaningful findings
  serious adverse events or treatment-emergent adverse events leading to discontinuation: no serious adverse events or treatment-emergent adverse events leading to discontinuation
[5]; all adverse events, 960 mg sotorasib
  adverse event severity: mild in severity
[5]; by end of study
  resolution of adverse events: All the adverse events resolved by the end of study
[5]; number of events, 20 subjects, Investigator assessment
  treatment-emergent adverse events considered related to sotorasib: 5
[5]; number of events, 20 subjects, single dose 960 mg sotorasib
  treatment-emergent adverse events: 9
[5]; single doses, normal hepatic function, moderate or severe hepatic impairment
  safety and tolerability: safe and well-tolerated
KRAS p.G12C tumors
  tumor regression: durable complete tumor regression
[6]
  inhibition of phosphorylation of ERK: inhibited nearly all detectable phosphorylation
[7]; NSCLC, colorectal, pancreatic, appendiceal, endometrial, unknown primary, ampullary, gastric, small bowel, sinonasal, bile duct cancer, or melanoma
  tumor response: stable disease (SD) or partial response (PR)
[7]; colorectal cancer, 42 patients
  disease control rate (95% CI): 73.8%
[7]; non-small cell lung cancer, 59 patients
  disease control rate (95% CI): 88.1%
[7]; other tumor types, 28 patients
  disease control rate (95% CI): 75.0%
CYP3A
  metabolizing enzyme: mainly metabolized by the hepatic enzymes CYP3A
[8]
  growth and regression of cells and tumors: inhibition of growth and regression of cells and tumors harboring KRAS G12C mutations
